# Data: US4195171A, “Derivatives of an antibiotic XK-62-2 and process for the production thereof” (Abbott Laboratories, priority 1975, dated 1980)
# Like-named read-outs stand apart in the source and are kept apart here.
# Assays:
# [1] = Acute toxicity (LD50) in mice; settings: mouse, in vivo, route not stated
# Text: XK-62-2, Compounds (I-2), (II-1) and (II-2) in mice.
# [2] = tested on: Klebsiella pneumoniae Y-58; experiment: Antibacterial spectrum, MIC by agar dilution method; type: cell-based; settings: Y58, pH 7.2, strain produces gentamicin adenyltransferase, read-out: Minimum Inhibitory Concentration
# Text: (§1) XK-62-2, 1-N-[L-(-)-α-hydroxy-γ-aminobutyryl] XK-62-2, Compounds (I-1), (I-2), (II-1) and (II-2) against various Gram-negative and Gram-positive bacteria determined by agar dilution method at pH 7.2.
# (§2) ^4 produces gentamicin adenyltransferase
# [3] = tested on: Klebsiella pneumoniae Y-60; experiment: as above; type: cell-based; settings: Y60, pH 7.2, strain produces gentamicin adenyltransferase, read-out: Minimum Inhibitory Concentration
# Text: as §1, §2
# [4] = tested on: Escherichia coli KY Z-338; experiment: as above; type: cell-based; settings: KYZ338, pH 7.2, strain produces gentamicin adenyltransferase, read-out: Minimum Inhibitory Concentration
# Text: as §1, §2
# [5] = tested on: Pseudomonas aeruginosa KY 8512; experiment: as above; type: cell-based; settings: KY8512, pH 7.2, strain produces neomycinkanamycin phosphotransferase Type I and Type II, read-out: Minimum Inhibitory Concentration
# Text: as §1
# (§3) ^6 produces neomycinkanamycin phosphotransferase Type I and Type II
# [6] = tested on: Pseudomonas aeruginosa KY 8519; experiment: as above; type: cell-based
# Text: as §1, §3
# [7] = tested on: Pseudomonas aeruginosa KY 8516; experiment: as above; type: cell-based
# Text: as §1
# (§4) ^1 produces kanamycin acetyltransferase
# [8] = tested on: Pseudomonas aeruginosa KY 8510; experiment: as above; type: cell-based
# Text: as §1, §4
# [9] = tested on: Pseudomonas aeruginosa KY 8563; experiment: as above; type: cell-based
# Text: as §1
# ^7 produces gentamicin acetyltransferase Type III
# [10] = KY8519, agar dilution, pH 7.2, strain produces neomycinkanamycin phosphotransferase Type I and Type II, read-out: Minimum Inhibitory Concentration
# [11] = KY8516, agar dilution, pH 7.2, strain produces kanamycin acetyltransferase, read-out: Minimum Inhibitory Concentration
# [12] = KY8510, agar dilution, pH 7.2, strain produces kanamycin acetyltransferase, read-out: Minimum Inhibitory Concentration
# [13] = KY8563, agar dilution, pH 7.2, strain produces gentamicin acetyltransferase Type III, read-out: Minimum Inhibitory Concentration
# [14] = KY8516, pH 7.2, read-out: Minimum Inhibitory Concentration
# [15] = KY8510, pH 7.2, read-out: Minimum Inhibitory Concentration
# [16] = KY8563, pH 7.2, read-out: Minimum Inhibitory Concentration
structure (smiles),measurement,setting,value
"CNCC1CCC(N)C(OC2C(N)CC(NC(=O)C(O)CCN)C(OC3OCC(C)(O)C(NC)C3O)C2O)O1 (single isomer, unassigned) [1-N-[L-(-)-α-hydroxy-γ-aminobutyryl] XK-62-2, reference compound]",LD50,[1],180 mg/kg
same,MIC,[2],0.2 µg/mL
same,MIC,[3],0.2 µg/mL
same,MIC,[4],0.2 µg/mL
same,MIC,[5],1.56 µg/mL
same,MIC,[6]; [10],6.25 µg/mL
same,MIC,[7]; [11],3.12 µg/mL
same,MIC,[8]; [12],3.12 µg/mL
same,MIC,[9]; [13],6.25 µg/mL
"CC1(O)COC(OC2C(NC(=O)C(O)CCN)CC(N)C(OC3OC(CN)CCC3N)C2O)C(O)C1N (single isomer, unassigned) [Compound I-2, 3""-N, 6'-N-didemethyl-1-N-[L-(-)-α-hydroxy-γ-aminobutyryl] XK-62-2]",LD50,[1],200 mg/kg
same,MIC,[2],0.78 µg/mL
same,MIC,[3],0.78 µg/mL
same,MIC,[4],0.4 µg/mL
same,MIC,[5],0.78 µg/mL
same,MIC,[6]; [10],3.12 µg/mL
same,MIC,[7]; [11],25 µg/mL
same,MIC,[8]; [12],12.5 µg/mL
same,MIC,[9]; [13],3.12 µg/mL
"CC1(O)COC(OC2C(NC(=O)C(O)CN)CC(N)C(OC3OC(CN)CCC3N)C2O)C(O)C1N (racemic) [Compound I-1, 3""-N, 6'-N-didemethyl-1-N-(DL-α-hydroxy-β-aminopropionyl) XK-62-2]",MIC,[2],0.78 µg/mL
same,MIC,[3],0.78 µg/mL
same,MIC,[4],0.78 µg/mL
same,MIC,[5],0.78 µg/mL
same,MIC,"[6]; KY8519, pH 7.2, read-out: Minimum Inhibitory Concentration",3.12 µg/mL
same,MIC,[7]; [11],50 µg/mL
same,MIC,[8]; [12],12.5 µg/mL
same,MIC,[9]; [13],1.56 µg/mL
"CNCC1CCC(N)C(OC2C(N)CC(NC(=O)C(O)CCN)C(OC3OCC(C)(O)C(N)C3O)C2O)O1 (single isomer, unassigned) [II-2, 3""-N-demethyl-1-N-[L-(-)-α-hydroxy-γ-aminobutyryl] XK-62-2]",LD50,[1],250 mg/kg
same,MIC,[2],0.4 µg/mL
same,MIC,[3],0.78 µg/mL
same,MIC,[4],0.4 µg/mL
same,MIC,[5],1.56 µg/mL
same,MIC,[6]; [10],6.25 µg/mL
same,MIC,[7]; [14],3.12 µg/mL
same,MIC,[8]; [15],3.12 µg/mL
same,MIC,[9]; [16],3.12 µg/mL
"CNCC1CCC(N)C(OC2C(N)CC(NC(=O)C(O)CN)C(OC3OCC(C)(O)C(N)C3O)C2O)O1 (racemic) [II-1, 3""-N-demethyl-1-N-(DL-α-hydroxy-β-aminopropionyl) XK-62-2]",LD50,[1],175 mg/kg
same,MIC,[2],0.78 µg/mL
same,MIC,[3],1.56 µg/mL
same,MIC,[4],0.78 µg/mL
same,MIC,[5],1.56 µg/mL
same,MIC,[6]; [10],6.25 µg/mL
same,MIC,[7]; [14],3.12 µg/mL
same,MIC,[8]; [15],3.12 µg/mL
same,MIC,[9]; [16],3.12 µg/mL
"CNCC1CCC(N)C(OC2C(N)CC(NC(=O)C(O)CN)C(OC3OCC(C)(O)C(NC)C3O)C2O)O1 (racemic) [1-N-(DL-α-hydroxy-β-aminopropionyl) XK-62-2, reference compound]",LD50,[1],185 mg/kg
same,MIC,[2],0.4 µg/mL
same,MIC,[3],0.4 µg/mL
same,MIC,[4],0.2 µg/mL
same,MIC,[5],1.56 µg/mL
same,MIC,[6]; [10],6.25 µg/mL
same,MIC,[7]; [11],3.12 µg/mL
same,MIC,[8]; [12],3.12 µg/mL
same,MIC,[9]; [13],3.12 µg/mL
